The source of these data is patent publication US20100003712A1, “BIOMARKER FOR ASSESSING RESPONSE TO CHYMASE TREATMENT” (priority 2008, published 2010).

In experiment [1] the test system is IL-18 levels in saliva. In words: IL-18 levels in human saliva after 14 days of dosing. The experiment is classed as in vivo. The following applies: human subjects. As for the experimental part: To examine the dose effects of COMPOUND NO. 1 on the IL-18 levels, subjects were treated with 0, 100, 600 mg of COMPOUND NO. 1 for 14 days and the saliva samples were collected. IL-18 levels in the samples were measured by ELISA as described above. […] 1 at 600 mg as compared to the placebo group (FIG. 8). The IL-18 levels were similar in the placebo group and the subjects treated with COMPOUND NO. 1 at 100 mg.

The subject of experiment [2] is other serine proteases. Conditions: cited from earlier work.
The subject of experiment [3] is endogenous IL-18. In words: effect of serine proteases on endogenous IL-18 levels in saliva samples (ELISA). It is filed as biochemical, human. The following applies: 37° C.; for effect of serine protease on IL-18 levels: saliva, 1 h, chymase 2, cathepsin G 2, elastase 0.5, proteinase 3 2, tryptase 1 μg/ml. As for the experimental part: Next, activities of the recombinant chymase and COMPOUND NO. 3 were examined with endogenous IL-18. One ml of saliva samples were collected from six subjects and incubated with vehicle (DMSO/PBS), chymase (80 nM), and chymase+COMPOUND No. 3 (1 μM) at 37° C. for 3 hr.
To determine the dose effects of the recombinant chymase on IL-18 levels, 1-300 nM of the recombinant chymase were incubated with saliva samples at 37° C. for 1 hr.
(§1) Next, the effects of various serine proteases and inhibitors on IL-18 levels were examined. The saliva samples were incubated with vehicle (DMSO/PBS), chymase (2 μg/ml), COMPOUND No. 3 (1 μM), chymase (2 μg/ml)+COMPOUND No. 3 (1 μM), chymostatin (3 μg/ml), chymase (2 μg/ml)+chymostatin (3 μg/ml), cathepsin G (2 μg/ml), cathepsin G (2 μg/ml)+COMPOUND No. 3 (1 μM), elastase (0.5 μg/ml), elastase (0.5 μg/ml)+COMPOUND No. 3 (1 μM), proteinase 3 (2 μg/ml), proteinase 3 (2 μg/ml)+COMPOUND No. 3 (1 μM), tryptase (1 μg/ml), or tryptase (1 μg/ml)+COMPOUND 3 (1 μM) at 37° C. for 1 h. […] In contrast, cathepsin G and elastase had no effect on IL-18 levels. […] However, the reduction of IL-18 by these two enzymes was not reversed by COMPOUND No. 3.
Background: ELISA stands for enzyme-linked immunosorbent assay.

Experiment [4] concerns the target T1, recombinant human chymase (Homo sapiens, UniProt P23946).
T1 construct: made in house
T1 sequence (P23946 22-247): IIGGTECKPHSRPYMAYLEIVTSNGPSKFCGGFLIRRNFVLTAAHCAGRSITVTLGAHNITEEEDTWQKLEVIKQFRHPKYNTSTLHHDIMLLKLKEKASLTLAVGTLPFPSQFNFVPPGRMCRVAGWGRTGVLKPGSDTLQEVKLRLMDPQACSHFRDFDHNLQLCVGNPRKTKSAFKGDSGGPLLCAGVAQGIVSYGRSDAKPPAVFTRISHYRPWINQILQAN
In words: reversal of chymase-induced decrease of IL-18 levels in human saliva (ELISA). Conditions: 37° C.; for dose-dependent reversal of chymase-induced decrease of IL-18 levels: 0-10,000 nM compound, human saliva; for dose-dependent reversal of chymase-induced decrease of IL-18 levels / IC50: 80 nM chymase, 1 hr; for IC50: n=3, ELISA, read-out: IC50 for reversal of chymase-induced IL-18 reduction; for reversal of chymase-induced reduction of IL-18 levels: chymase 2 μg/ml, COMPOUND No. 3 1 μM or chymostatin 3 μg/ml, 1 h. The experiment is classed as biochemical. On the procedure: (§2) The digestion was measured using the enzyme-linked immunosorbent assay (ELISA) kit (R&D Systems). […] As the ELISA detection provided quantitative measurement and high-throughput screening capacity, it was used for the following experiments.
Next, activities of the recombinant chymase and COMPOUND NO. 3 were examined with endogenous IL-18.
The dose effects of the chymase inhibitors on IL-18 levels were also examined. […] The IL-18 levels were measured using ELISA as described above.
Next, the effects of various serine proteases and inhibitors on IL-18 levels were examined.

Experiment [5] has as its target T2, proteinase 3 (Homo sapiens, UniProt P24158).
T2 sequence (P24158 28-248): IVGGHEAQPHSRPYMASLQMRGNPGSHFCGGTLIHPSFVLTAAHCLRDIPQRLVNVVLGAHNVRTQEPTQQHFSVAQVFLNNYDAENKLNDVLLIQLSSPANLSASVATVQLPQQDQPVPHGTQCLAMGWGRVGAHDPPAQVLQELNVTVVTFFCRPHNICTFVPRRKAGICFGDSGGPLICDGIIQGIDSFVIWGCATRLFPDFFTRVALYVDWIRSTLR
In words: reversal of proteinase 3-induced reduction of IL-18 in saliva (ELISA). The following applies: proteinase 3 2 μg/ml + compound 1 μM; 37° C., 1 h. It is filed as biochemical. On the procedure:
as §1

Experiment [6] concerns endogenous chymase activity and other proteases activity in saliva samples. In words: IL-18 levels in saliva samples incubated with protease inhibitors, no added chymase (ELISA). It is filed as biochemical, human. Conditions: 37° C., 1 hour. As for the experimental part: To determine the effects of additional protease inhibitors on the endogenous IL-18 levels, the pan protease inhibitors and/or COMPOUND No. 3 were incubated with saliva samples at 37° C. for 1 hour. […] Ten μM of COMPOUND NO.

For experiment [7], the system named is tryptase. In words: reversal of tryptase-induced reduction of IL-18 in saliva (ELISA). It is filed as biochemical. Conditions: tryptase 1 μg/ml + compound 1 μM; 37° C., 1 h. On the procedure:
as §1

Experiment [8] relates to recombinant mature human IL-18. In words: cleavage of recombinant mature human IL-18 by chymase (Western blot, ELISA). Conditions: 37° C. The experiment is classed as biochemical. On the procedure: A recombinant human chymase was generated according to Kervinen et al. (2008). A hundred ng of the recombinant mature human IL-18 (rIL-18, R&D Systems, 614 McKinley Place NE, Minneapolis, Minn. 55413) was incubated with the recombinant chymase (w/w 1:25) in PBS at 37° C. for various time points. The digestion products were separated on a 4-12% gradient gel. Western blot analysis was done with a specific monoclonal antibody against human IL-18. […] The exact cleavage sites were not clear. Without being bound to any theory, the mature IL-18 may be cleaved by the recombinant human chymase into the ˜16 kD fragment which may be further degraded into the ˜12 kD fragment. […] In addition, the chymase-induced cleavage of rIL-18 was both time (FIG. 1A) and dose dependent (FIG. 1B).
as §2
A general note: Immunoblotting shows a protein as a band on a membrane.

In the case of `CP(=O)(O)C(C(=O)N/C=C/c1ccc(F)c(F)c1)c1csc2ccc(Cl)cc12` (stereo not shown) [COMPOUND NO. 1], in experiment [1] (100 mg for 14 days), the “IL-18 levels in saliva compared to the placebo group, 100 mg” value is “similar”. Besides, the “IL-18 levels in saliva compared to the placebo group, 600 mg” value in experiment [1] (600 mg for 14 days, p<0.03) is listed as “significant increase”. Also, in experiment [2], the “cross activity with other serine proteases” value was “little or no cross activity”.
elastase: the “effect of serine protease on IL-18 levels” value (shortened to “effect of serine protease”) in experiment [3] is “no effect”.
As to `CC(C)OC(=O)OCOP(=O)(O)C(C(=O)N/C=C/c1cc(Cl)cc(Cl)c1)c1csc2ccc(Cl)cc12` (stereo not shown) [COMPOUND NO. 2], in experiment [4], the “dose-dependent reversal of chymase-induced decrease of IL-18 levels” value was “dose-dependently reversed” and the concentration for half-maximal inhibition (IC50) – broadly, the concentration needed to halve the response being measured – stood at 1.46 ± 0.563 µM.
`CC(C)C[C@H](NC(=O)[C@@H](NC(=O)N[C@@H](Cc1ccccc1)C(=O)O)[C@@H]1CCN=C(N)N1)C(=O)N[C@H](C=O)Cc1ccccc1` [chymostatin, reference compound]: the “reversal of chymase-induced reduction of IL-18 levels” value in experiment [4] is given as “reversed the reduction”.
Consider `O=C(N/C=C/c1cc(Cl)cc(Cl)c1)C(c1csc2ccc(Cl)cc12)P(=O)(O)O` (stereo not shown) [COMPOUND NO. 3], for which, in experiment [4], the “dose-dependent reversal of chymase-induced decrease of IL-18 levels” value is “dose-dependently reversed”, the IC50 was found to be 3.6 ± 0.928 µM and the “reversal of chymase-induced reduction of IL-18 levels” value was “reversed this reduction”. Besides, the “reversal of chymase-induced decrease of IL-18 levels, subjects 1-3 and 6” value in experiment [4] (chymase 80 nM + compound 1 μM, 3 hr, subjects 1-3 and 6) was “reversed completely”. Also, the “reversal of chymase-induced decrease of IL-18 levels, subjects 4 and 5” value in experiment [4] (chymase 80 nM + compound 1 μM, 3 hr, subjects 4 and 5) is “reverted to a large degree”. In experiment [4] (saliva of six subjects, chymase 80 nM + compound 1 μM, 3 hr), the “reversal of chymase-induced decrease of IL-18 levels” value is on record as “reversed or prevented”. Besides, the “reversal of proteinase 3-induced reduction of IL-18” value in experiment [5] is “not reversed”. Further, the “reversal of the decrease in IL-18 levels in incubated saliva” value in experiment [6] (1 or 10 μM) is “reversed some of the decrease”. In experiment [6], the “increase of IL-18 levels at 10 μM compared with 1 μM” value is “almost two fold”. Moreover, the “reversal of tryptase-induced reduction of IL-18” value in experiment [7] was “not reversed”.

B1: Proteinase 3: serine protease (protein, UniProt P24158 28-248, looked up)
Myeloblastin: T2 sequence (P24158 28-248)
Turning to B1, the “effect of serine protease” value in experiment [3] was “reduced IL-18 levels significantly”.

B2: recombinant chymase: recombinant human chymase generated according to Kervinen et al. (2008) (protein, UniProt P23946 22-247, looked up)
Chymase: T1 sequence (P23946 22-247)
On to B2, for which, in experiment [3] (1-300 nM chymase in saliva samples, 1 hr, n=3), the EC50 (commonly the concentration needed to bring the measured effect to its halfway point) was found to be 0.0604 ± 0.0152 µM. The “effect on immunoreactivity or levels of endogenous IL-18” value in experiment [3] (chymase 80 nM, saliva of six subjects, 3 hr) is “decrease”. The “effect of serine protease” value in experiment [3] is “reduced”. Further, the “rIL-18 immunoreactivity or levels in the presence of chymase, PBS” value in experiment [8] (80 nM chymase, 4 mg/ml rIL-18, PBS, 1.5 h, without chymase ~4000) is approximately 1300 ng/mL. Also, in experiment [8] (80 nM chymase, 4 mg/ml rIL-18, saliva, 1.5 h, without chymase ~3,000), the “rIL-18 immunoreactivity or levels in the presence of chymase, saliva” value is given as ~1,000 ng/ml. Besides, the “cleavage of mature human IL-18 (Western blot)” value in experiment [8] (100 ng rIL-18, chymase w/w 1:25, PBS, fragments ~16 and ~12 kD) is “able to cleave”.

B3: cathepsin G: serine protease (protein, UniProt P08311 21-244, looked up)
Cathepsin G: IIGGRESRPHSRPYMAYLQIQSPAGQSRCGGFLVREDFVLTAAHCWGSNINVTLGAHNIQRRENTQQHITARRAIRHPQYNQRTIQNDIMLLQLSRRVRRNRNVNPVALPRAQEGLRPGTLCTVAGWGRVSMRRGTDTLREVQLRVQRDRQCLRIFGSYDPRRQICVGDRRERKAAFKGDSGGPLLCNNVAHGIVSYGKSSGVPPEVFTRVSSFLPWIRTTMRS
Take B3: the “effect of serine protease” value in experiment [3] is “no effect”.
